From PubChem BioAssay (NCI)
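Values below derive from 48-hour exposures of cells grown in 96-well plates, with endpoints linearly interpolated between the two concentrations bracketing the appropriate inhibition level. Here, GI50 denotes the concentration required for 50% inhibition of growth. Definition used: TGI = concentration required for complete inhibition of growth.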

system: HS 578T breast; assay: NCI anticancer screen, dose series, 48 h

| Compound | TGI [µM] | GI50 [µM] |
| --- | --- | --- |
| NC(N)=N/N=C/c1cc(Cl)cc(Cl)c1O | > 100 |  |
| N#CC1Nc2ccccc2[C@@H](O)C1O (some centres not stated) | > 100 |  |
| COc1ccc(C2C(C#N)=C(N)OC3=C2COc2ccc(F)cc23)cc1OC (configuration not stated) | 81.7 | 35.6 |

system: SR leukemia; assay: NCI anticancer screen, dose series, 48 h

| Compound | GI50 [µM] | TGI [µM] |
| --- | --- | --- |
| CC(=O)Oc1ccccc1C(=O)N=C1[Se]CCN1C(=O)c1ccccc1OC(C)=O | 1.51 | > 100 |
| CCOC(=O)c1[nH]c(COC(C)=O)c(CCCOC(C)=O)c1CCCOC(C)=O |  | > 100 |
| C#C[C@]1(O)CC[C@H]2[C@@H]3CC=C4c5sc(Nc6ccccc6)nc5CC[C@]4(C)[C@H]3CC[C@@]21C | 0.623 | > 100 |
| O=C(Nc1ccc([N+](=O)[O-])cc1)C1C(=O)C(=O)N(c2ccc([N+](=O)[O-])cc2)C1=O (configuration not stated) |  | > 100 |
| Cc1cn2c(/C=C3/C(=O)Nc4ccccc43)c(-c3ccc(Cl)cc3)nc2s1 | 11.5 | 39.8 |
| O=c1[nH]c2cc(Cl)ccc2n1C1CCN(CCCC(c2ccc(F)cc2)c2ccc(F)cc2)CC1 | 2.25 | 8.36 |
| COc1ccccc1NC(=O)C1=C(C)NC(C)=C(C(=O)Nc2ccccc2OC)C1c1ccc([N+](=O)[O-])cc1 |  | > 100 |
| O=C(CSc1nnc(-c2ccccc2NC(=O)C(F)(F)F)c(=O)[nH]1)NC(=O)Nc1ccccc1 |  | > 100 |
| COC(=O)/C=C/C1C(C(=O)OC)C2(C(=O)OC)CCC1(C(=O)OC)N2 (configuration not stated) |  | > 100 |
| CC(C)(C)N1CC2(CCCCC2)C1=O |  | > 100 |
| N#CC(/C(=N/NC(=O)C(=O)NN)C(=O)NC12CC3CC(CC(C3)C1)C2)c1ccccc1 (configuration not stated) |  | > 100 |
| CN=NN(C)C(=O)NC |  | > 100 |
| CCCCCCCCCc1cc(=O)c2c(O)cccc2o1 |  | > 100 |
| N#CC1Nc2ccccc2[C@@H](O)C1O (some centres not stated) |  | > 100 |
| COC(=O)C12C3C4C5(C(=O)OC)C(C1C35C(=O)N(C(C)C)C(C)C)C42C(=O)N(C(C)C)C(C)C (configuration not stated) |  | > 50 |
| COc1ccc(C2C(C#N)=C(N)OC3=C2COc2ccc(F)cc23)cc1OC (configuration not stated) | 9.09 | > 100 |
| Cc1cc(C)n(CCNCCn2nc(C)cc2C)n1 |  | > 100 |
| O=C1CSC(Cc2nc3ccccc3[nH]2)=N1 |  | 25.6 |
| O=C(/C=C/c1ccccc1)/C=C/c1ccccc1 |  | 67.1 |
| CCOC(=O)C1=C(C)N(N)C(=S)NC1c1ccc(C)cc1 (configuration not stated) | 28.3 | > 100 |
| N#CC(C#N)=c1[nH]c2cccc3c2-c2c(cccc2c3=C(C#N)C#N)[nH]1 |  | > 100 |

system: UACC-62 melanoma; assay: NCI anticancer screen, dose series, 48 h

| Compound | GI50 [µM] | TGI [µM] |
| --- | --- | --- |
| CC(=O)Oc1ccccc1C(=O)N=C1[Se]CCN1C(=O)c1ccccc1OC(C)=O | 1.04 | 2.84 |
| O=S(O)CCCCSSCc1ccccc1CSSCCCCS(=O)O |  | 25.3 |
| COc1cc(/C=C2\C(=O)Nc3ccc(F)cc32)cc(OC)c1OC | 11.7 | > 100 |
| C#C[C@]1(O)CC[C@H]2[C@@H]3CC=C4c5sc(Nc6ccccc6)nc5CC[C@]4(C)[C@H]3CC[C@@]21C | 2.13 | 6.44 |
| O=C(Nc1ccc([N+](=O)[O-])cc1)C1C(=O)C(=O)N(c2ccc([N+](=O)[O-])cc2)C1=O (configuration not stated) |  | 19.5 |
| Cc1cn2c(/C=C3/C(=O)Nc4ccccc43)c(-c3ccc(Cl)cc3)nc2s1 | 5.49 | 11.5 |
| O=C(CCC/C(CC(=O)c1ccc(Br)cc1)=N\O)Nc1ccccc1 |  | > 100 |
| O=C(/C=C/c1c(O)ccc2ccccc12)c1ccc2ccccc2c1 |  | > 100 |
| O=c1[nH]c2cc(Cl)ccc2n1C1CCN(CCCC(c2ccc(F)cc2)c2ccc(F)cc2)CC1 | 1.71 | 3.13 |
| CCOC(=O)C1N(S(=O)(=O)c2ccc(C)cc2)CCC12C(c1ccc(OC)cc1)NC1CCCCC12 (configuration not stated) |  | > 100 |
| COc1ccccc1NC(=O)C1=C(C)NC(C)=C(C(=O)Nc2ccccc2OC)C1c1ccc([N+](=O)[O-])cc1 |  | > 100 |
| O=C(CSc1nnc(-c2ccccc2NC(=O)C(F)(F)F)c(=O)[nH]1)NC(=O)Nc1ccccc1 |  | > 100 |
| COC(=O)/C=C/C1C(C(=O)OC)C2(C(=O)OC)CCC1(C(=O)OC)N2 (configuration not stated) |  | > 100 |
| CC(C)(C)N1CC2(CCCCC2)C1=O |  | > 100 |
| C#CC(=O)Nc1cccc(Nc2nc3c(c(NCc4ccccc4)n2)CCCC3)c1 | 0.0851 | 0.279 |
| COc1ccc(C(=O)C(CO)Oc2ccccc2OC)cc1OC (configuration not stated) |  | > 100 |

| Compound | GI50 [µM] | TGI [µM] |
| --- | --- | --- |
| N#CC(/C(=N/NC(=O)C(=O)NN)C(=O)NC12CC3CC(CC(C3)C1)C2)c1ccccc1 (configuration not stated) |  | > 100 |
| CN=NN(C)C(=O)NC |  | > 100 |
| Nc1c(C(=O)N/N=C/c2ccc(-c3ccc(Cl)cc3)o2)cnn1-c1ccnc2c(C(F)(F)F)cccc12 | > 100 | > 100 |
| NC(N)=N/N=C/c1cc(Cl)cc(Cl)c1O |  | > 100 |
| CCCCCCCCCc1cc(=O)c2c(O)cccc2o1 |  | > 100 |
| N#CC1Nc2ccccc2[C@@H](O)C1O (some centres not stated) |  | > 100 |
| O=C(CN1CCCCC1)N1CCc2c([nH]c3ccccc23)C1c1cccnc1 (configuration not stated) |  | > 100 |
| COC(=O)C12C3C4C5(C(=O)OC)C(C1C35C(=O)N(C(C)C)C(C)C)C42C(=O)N(C(C)C)C(C)C (configuration not stated) |  | > 50 |
| COc1ccc(C2C(C#N)=C(N)OC3=C2COc2ccc(F)cc23)cc1OC (configuration not stated) | 15.1 | 44.3 |
| Cc1cc(C)n(CCNCCn2nc(C)cc2C)n1 |  | > 100 |
| O=C1CSC(Cc2nc3ccccc3[nH]2)=N1 |  | 37.7 |
| O=C(/C=C/c1ccccc1)/C=C/c1ccccc1 |  | 87.1 |
| N#C/C(=C\c1ccc(O)c(O)c1)C(N)=O |  | > 100 |
| CCOC(=O)C1=C(C)N(N)C(=S)NC1c1ccc(C)cc1 (configuration not stated) | 23.3 | > 100 |
| N#CC(C#N)=c1[nH]c2cccc3c2-c2c(cccc2c3=C(C#N)C#N)[nH]1 |  | > 100 |

system: TK-10 renal; assay: NCI anticancer screen, dose series, 48 h

| Compound | GI50 [µM] | TGI [µM] |
| --- | --- | --- |
| CC(=O)Oc1ccccc1C(=O)N=C1[Se]CCN1C(=O)c1ccccc1OC(C)=O | 0.491 | 1.87 |
| O=S(O)CCCCSSCc1ccccc1CSSCCCCS(=O)O |  | > 100 |
| CCOC(=O)c1[nH]c(COC(C)=O)c(CCCOC(C)=O)c1CCCOC(C)=O |  | > 100 |
| COc1cc(/C=C2\C(=O)Nc3ccc(F)cc32)cc(OC)c1OC | 68.5 | > 100 |
